These are literature values, as cited in patent US20150196708A1, “SYSTEMS, METHODS AND COMPOSITIONS FOR IMPROVED TREATMENT OF ACIDOSIS” (The Regents of the University of California, priority 2012, published 2015).

One series relates to patients with acidosis. To be noted: literature (Cooper et al., 1990; Leung et al., 1994).
For series [1] the following is noted: room temperature; incorporates CO2(aq)/H2CO3(aq) equilibrium.

As to `O=C([O-])O.[Na+]` [bicarbonate, sodium bicarbonate], the “clinical benefit in human studies” value in the series on patients with acidosis is “no more beneficial effect than the administration of similar quantities of sodium chloride”.
On to `O=C(O)O` [carbonic acid], for which the “Ka1 (deprotonation)” value in series [1] was 4.3×10^−7.
